Test results: patent US8883723B2, “Conjugate of insulin and vitamin B12 for oral delivery” (Syracuse University, priority 2007, dated 2014)
Like-named read-outs stand apart in the source and are kept apart here.

Legend:
[1] = in vivo; cited from earlier work
[2] = system: humans; conditions: cited from earlier work; for decrease in caloric intake: total dose 2 nmol/m^2 body-surface area, 90-min infusion
[3] = system: obese subjects; conditions: cited from earlier work
[4] = humans; cited from earlier work
[5] = system: humans; conditions: cited from earlier work
[6] = system: STZ-induced diabetic rat model; experiment: Blood glucose response after oral gavage in the STZ-induced diabetic rat model; type: in vivo, Sprague Dawley rats; conditions: STZ-induced diabetic rats
From the text: To examine the in vivo efficacy of the B12-insulin conjugate, blood from the STZ-induced diabetic rat model was sampled by means of a jugular catheter prior to and subsequent to oral administration of the B12-insulin conjugate and compared to the blood glucose response following administration of an equimolar solution of free insulin (FIG. 8A and B).
Animals. Male Sprague Dawley rats (323±36; ±SD; n=12) were purchased pre-catheterised (Jugular vein) from Charles River Laboratories (Wilmington, Mass.), acclimatised for three days and then rendered insulin-deficient via infusion of streptozotocin (STZ; 60 mg/kg body weight) dissolved in citrate buffer and used within 15 min of preparation. Blood glucose concentration was assessed over four days to ensure fasting levels of greater than 14 mmol/L (>250 mg/dl) were reached. Animals were housed individually and maintained on a 12-hr light-dark (0600-1800 h) cycle with free access to food (standard laboratory chow; Scotts' Distributing, Inc) and water. Maintenance of animals and experimental protocols were conducted in accordance with federal regulations and approved by the Syracuse University Institutional Animal Care and Use Committee (Protocol Number SU 09-102)
Animal experimental design. On the day of experimentation, animals were fasted for 4 hours prior to the sampling of blood (50 μl) and the B12-insulin compound (100 nm/ml) was subsequently administered via oral gavage (1 ml). Blood was then sampled at 30-, 60-, 90-, 120-, 150-, 180-, 210-, 240-, 270- and 300-min after the administration of the conjugate for the calculation of area under the blood glucose curve (YSI 2300 STAT PLUS, YSI Incorporated, Yellow Springs, Ohio). Two control groups were used in this set of experiments; the first received a molar-equivalent concentration (100 nm) of free insulin (1 ml) while the second control group received the same quantity of the B12-insulin conjugate as the experimental group, however the conjugate was dissolved in 10^5-fold excess B12.

[7] = system: Intrinsic Factor; experiment: Spectrophotometric Intrinsic Factor in vitro binding studies; conditions: 50 mM HEPES
Protocol: Intrinsic Factor binding studies. Intrinsic Factor (10 mg, […]) was dissolved in 1 mL dH2O. A 50 μL aliquot of B12-insulin was added to 950 μL of 50 mM HEPES buffer. Baseline was run against HEPES buffer and the first scan of B12-insulin was taken without Intrinsic Factor. A 5 μL aliquot of Intrinsic Factor was added to the B12-insulin, mixed and a second scan was taken. This procedure was repeated for five additions of Intrinsic Factor.

[8] = Melting circular dichroism studies (222 nm); type: physicochemical; conditions: 50 mM HEPES
Protocol: Melting circular dichroism (CD) studies. Circular dichroism (CD) was performed on an Aviv model 202 spectrometer set at 222 nm with a 1 mL Quartz cuvette. All samples were prepared in 50 mM HEPES buffer (pH 9.7) with 25 mM carbonate and 10 mM EDTA and heated from 25 to 80° C. in 1° increments then cooled from 80 to 25° C. in the same increment. Sample concentrations ranged from 1.00 μM to 1.35 μM. […] All results were duplicated per batch and run for every batch prior to in vivo testing.

[9] = oral-enteric route; cited from earlier work
[10] = native insulin, Tietze et al. 1953; cited from earlier work

PYY3-36: truncated form of Peptide YY, endogenous appetite suppressing peptide
time for plasma level to return to baseline after end of infusion [1]: ≤ 30 min | reduction in calorie intake ([2]; lean humans, i.v. infusion 0.8 pmol/kg/min, free-choice buffet meal 2 hours after end of infusion): approximately 36% | decrease in caloric intake ([2]; lean subjects): 31% | decrease in caloric intake ([2]; obese subjects): 30%

CC(C)CC(N(C)C)C1(c2ccc(Cl)cc2)CCC1 (stereo not drawn) [sibutramine]
mean weight loss [3]: 10% | reduction of acute caloric intake [3]: 16%

Cyanocobalamin [B12]
uptake capacity [4]: 1-2 μg per dosage

GLP-1(7-36)amide: Glucagon-like peptide-1 (7-36) amide, endogenous incretin peptide
average acute reduction of food intake ([5]; infusion, meta-analysis): 11.7% | weight loss ([5]; prandial subcutaneous injections for 5 days, obese but otherwise healthy subjects): 0.55 kg

B12-insulin conjugate: Bovine insulin conjugated using CDI at B strand lysine29 to the 5′-hydroxyl group of B12; carbamate linked conjugate
reduction of blood glucose levels compared with free insulin ([6]; oral administration): more effective than free insulin | time of nadir in the blood glucose response ([6]; oral administration): 4 h | greater decrease in the area under the blood glucose curve compared to free insulin ([6]; oral gavage 1 ml of 100 nm/ml, 300 min, vs equimolar free insulin, p=0.056): 4.7 fold | binding to Intrinsic Factor [7]: recognizing the B12-insulin conjugate | binding to Intrinsic Factor ([7]; listed as insulin-B12 conjugate): successful binding | melting temperature (circular dichroism) [8]: ~65 °C | melting temperature (circular dichroism) ([8]; listed as B12-insulin): 55 °C

insulin
bioavailability [9]: about 5% | half-life [10]: 10 min
